The structures appear in SMILES notation. Where a SMILES comes first, the peptide text is derived from it. [ ]: non-standard residue; d: D form. Arg(Me) = CNC(=N)NCCC[C@H](N)C(=O)O; Hyp = O=C(O)[C@@H]1C[C@@H](O)CN1; azaGly = NNC(=O)O

One series has as its target T1, CYP1A2 (Homo sapiens, UniProt P05177).
T1 sequence (P05177 1-516): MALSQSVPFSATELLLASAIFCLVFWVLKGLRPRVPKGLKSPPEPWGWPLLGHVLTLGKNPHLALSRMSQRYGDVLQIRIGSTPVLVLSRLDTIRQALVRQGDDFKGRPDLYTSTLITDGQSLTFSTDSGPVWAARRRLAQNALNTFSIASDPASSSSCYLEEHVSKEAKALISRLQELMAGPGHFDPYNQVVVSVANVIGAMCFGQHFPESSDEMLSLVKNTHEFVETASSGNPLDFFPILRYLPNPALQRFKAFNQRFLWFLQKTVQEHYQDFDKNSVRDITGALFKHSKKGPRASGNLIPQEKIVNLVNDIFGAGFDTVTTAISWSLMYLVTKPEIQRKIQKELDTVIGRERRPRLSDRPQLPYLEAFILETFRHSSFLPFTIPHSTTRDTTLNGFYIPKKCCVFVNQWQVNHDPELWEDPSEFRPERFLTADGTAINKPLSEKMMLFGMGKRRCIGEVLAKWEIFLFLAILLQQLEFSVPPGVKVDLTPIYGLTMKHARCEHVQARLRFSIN
Briefly: Inhibition of recombinant CYP1A2. It counts as in vitro ADME.

For series [1] the following is noted: dog, in vivo; cited from earlier work.

Usually IC50 stands for the concentration needed to halve the response being measured. `CC(=O)O.CNC(=N)NCCC[C@H](NC(=O)[C@H](CC(C)C)NC(=O)NNC(=O)[C@H](Cc1ccccc1)NC(=O)[C@@H](NC(=O)[C@H](CC(N)=O)NC(=O)[C@@H]1C[C@@H](O)CN1C(=O)[C@@H](Cc1ccc(O)cc1)NC(C)=O)[C@@H](C)O)C(=O)N[C@@H](Cc1c[nH]c2ccccc12)C(N)=O` [API-MA, 2-(N-Acetyl-D-tyrosyl-trans-4-hydroxy-L-prolyl-Lasparaginyl-L-threonyl-L-phenylalanyl)-hydrazinocarbonyl-L-leucyl-Nω-methyl-L-arginyl-L-tryptophanamide monoacetate] (Ac-[dY][Hyp]NTF[azaGly]L[Arg(Me)]W-NH2): at CYP1A2, the IC50 is > 7.78 nM.
By bioavailability is commonly meant dose-corrected exposure relative to a reference, in per cent. Regarding `CNC(=N)NCCC[C@H](NC(=O)[C@H](CC(C)C)NC(=O)NNC(=O)[C@H](Cc1ccccc1)NC(=O)[C@@H](NC(=O)[C@H](CC(N)=O)NC(=O)[C@@H]1C[C@@H](O)CN1C(=O)[C@@H](Cc1ccc(O)cc1)NC(C)=O)[C@@H](C)O)C(=O)N[C@@H](Cc1c[nH]c2ccccc12)C(N)=O` [Compound 1, 2-(N-Acetyl-D-tyrosyl-trans-4-hydroxy-L-prolyl-L-asparaginyl-L-threonyl-L-phenylalanyl)-hydrazinocarbonyl-L-leucyl-Nω-methyl-L-arginyl-L-tryptophanamide] (Ac-[dY][Hyp]NTF[azaGly]L[Arg(Me)]W-NH2), the bioavailability in series [1] was 92.4%.
